In general, Ki refers to the dissociation constant of the complex between target and ligand, obtained from inhibition or displacement. As usually defined, the IC50 is the concentration at which inhibition is half-maximal.

One data set deals with Sigma non-opioid intracellular receptor 1 (Homo sapiens, UniProt Q99720). The data set is described as follows: Displacement of [3H]pentazocine from human sigma 1 receptor expressed in HEK293 cell membrane incubated for 2 hrs by liquid scintillation counting method.
Sigma non-opioid intracellular receptor 1, sequence (Q99720 whole entry): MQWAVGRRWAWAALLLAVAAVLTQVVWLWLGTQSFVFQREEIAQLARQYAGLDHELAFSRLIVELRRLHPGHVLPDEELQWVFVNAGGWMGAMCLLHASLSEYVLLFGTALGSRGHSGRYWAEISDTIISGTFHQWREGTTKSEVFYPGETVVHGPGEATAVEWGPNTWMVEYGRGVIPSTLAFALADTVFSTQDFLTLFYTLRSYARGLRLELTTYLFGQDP
Settings: not given; call rule not given here
In kind it is cell membranes. Background: Loss of bound radioactivity is the signal in a displacement assay; it reports binding, not function.
`O=c1ccoc2ccc(OCCCN3CCCC3)cc12` showed a Ki of 499 nM.

Turning to `O=c1ccoc2ccc(OCCCCN3CCCC3)cc12`, the Ki worked out at 227 nM.

Consider `O=c1ccoc2ccc(OCCCCCN3CCCC3)cc12`, for which the Ki came out at 87 nM.

The compound `CCN(CC)CCOc1ccc2occc(=O)c2c1` had a Ki of 12100 nM.

`O=c1ccoc2ccc(OCCN3CCCC3)cc12` came in with a Ki of 2870 nM.

`CN1CCN(CCCCCOc2ccc3occc(=O)c3c2)CC1`: the inhibition constant (Ki) came to 82.5 nM.

The compound `O=c1ccoc2ccc(OCCCCCN3CCCCC3)cc12` showed a Ki of 213 nM.

Take `O=c1ccoc2ccc(OCCN3CCCCC3)cc12`: the Ki came out at 825 nM.

The compound `O=c1ccoc2ccc(OCCCCN3CCCCC3)cc12` displayed a Ki of 309 nM.

Regarding `CCN(CC)CCCCCOc1ccc2occc(=O)c2c1`, the Ki is 218 nM.

With `O=c1ccoc2ccc(OCCN3CCCCCC3)cc12`, the Ki was 113 nM.

Consider `CN1CCN(CCOc2ccc3occc(=O)c3c2)CC1`, for which the Ki worked out at 604 nM.

Regarding `O=c1ccoc2ccc(OCCCCN3CCOCC3)cc12`, the affinity, expressed as Ki, was 23.9 nM.

`CN1CCN(CCCOc2ccc3occc(=O)c3c2)CC1` had a Ki of 809 nM.

`O=c1ccoc2ccc(OCCCN3CCCCC3)cc12` came in with a Ki of 65.5 nM.

As to `O=c1ccoc2ccc(OCCCN3CCCCCC3)cc12`, affinity was put at a Ki of 27.2 nM.

Regarding `C[C@@H]1CCCN1CCCCOc1ccc2occc(=O)c2c1`, the Ki was determined as 104 nM.

Compound `O=c1ccoc2ccc(OCCCCCN3CCOCC3)cc12` returned a Ki of 19.6 nM.

Compound `C[C@@H]1CCCN1CCCCCOc1ccc2occc(=O)c2c1` showed a Ki of 134 nM.

In turn, `CCN(CC)CCCOc1ccc2occc(=O)c2c1` gave a Ki of 1220 nM.

In turn, `O=c1ccoc2ccc(OCCCN3CCOCC3)cc12` came in with a Ki of 245 nM.

A further data set addresses T1, Sigma intracellular receptor 2 (Rattus norvegicus, UniProt Q5U3Y7).
T1 sequence (Q5U3Y7 whole entry): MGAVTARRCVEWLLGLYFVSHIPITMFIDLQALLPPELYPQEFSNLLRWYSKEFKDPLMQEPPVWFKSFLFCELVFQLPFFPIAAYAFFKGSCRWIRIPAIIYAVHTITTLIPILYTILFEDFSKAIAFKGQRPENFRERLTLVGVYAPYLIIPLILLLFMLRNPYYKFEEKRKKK
Briefly: Displacement of (+)-[3H]DTG from sigma 2 receptor in SPRD rat liver membrane incubated for 2 hrs by liquid scintillation counting method.
Settings: not given
Type of data set: cell membranes.
`O=c1ccoc2ccc(OCCCN3CCCC3)cc12` showed a Ki of 23900 nM.

For the compound `O=c1ccoc2ccc(OCCCCN3CCCC3)cc12`, the Ki came out at 3110 nM.

`O=c1ccoc2ccc(OCCCCCN3CCCC3)cc12`: the affinity corresponds to a Ki of 1450 nM.

`CCN(CC)CCOc1ccc2occc(=O)c2c1` gave a Ki of 30000 nM.

`O=c1ccoc2ccc(OCCN3CCCC3)cc12`: the Ki amounted to 12500 nM.

`CN1CCN(CCCCCOc2ccc3occc(=O)c3c2)CC1` gave a Ki of 4100 nM.

Compound `O=c1ccoc2ccc(OCCCCCN3CCCCC3)cc12` returned a Ki of 490 nM.

Compound `O=c1ccoc2ccc(OCCN3CCCCC3)cc12` registered a Ki of 9070 nM.

As for `O=c1ccoc2ccc(OCCCCN3CCCCC3)cc12`, the affinity, expressed as Ki, was 1970 nM.

Turning to `O=c1ccoc2ccc(OCCN3CCOCC3)cc12`, the Ki is over 10000 nM.

For the compound `CCN(CC)CCCCCOc1ccc2occc(=O)c2c1`, the affinity corresponds to a Ki of 2500 nM.

In the case of `O=c1ccoc2ccc(OCCN3CCCCCC3)cc12`, the Ki is 1620 nM.

Turning to `CN1CCN(CCOc2ccc3occc(=O)c3c2)CC1`, the affinity, expressed as Ki, was 14200 nM.

Take `O=c1ccoc2ccc(OCCCCN3CCOCC3)cc12`: the Ki was found to be 14600 nM.

As for `CN1CCN(CCCOc2ccc3occc(=O)c3c2)CC1`, the affinity, expressed as Ki, was 17100 nM.

Compound `O=c1ccoc2ccc(OCCCN3CCCCC3)cc12` returned a Ki of 2890 nM.

`O=c1ccoc2ccc(OCCCN3CCCCCC3)cc12` registered a Ki of 750 nM.

The compound `C[C@@H]1CCCN1CCCCOc1ccc2occc(=O)c2c1` gave a Ki of 1090 nM.

`O=c1ccoc2ccc(OCCCCCN3CCOCC3)cc12` registered a Ki of 2630 nM.

Take `C[C@@H]1CCCN1CCCCCOc1ccc2occc(=O)c2c1`: the Ki is 583 nM.

On to `CCN(CC)CCCOc1ccc2occc(=O)c2c1`, for which the affinity corresponds to a Ki of 8360 nM.

For `O=c1ccoc2ccc(OCCCN3CCOCC3)cc12`, affinity was put at a Ki of 22500 nM.

The target in another data set is Acetylcholinesterase (Homo sapiens, UniProt P22303). Briefly: Inhibition of human AChE.
Acetylcholinesterase, sequence (P22303 whole entry): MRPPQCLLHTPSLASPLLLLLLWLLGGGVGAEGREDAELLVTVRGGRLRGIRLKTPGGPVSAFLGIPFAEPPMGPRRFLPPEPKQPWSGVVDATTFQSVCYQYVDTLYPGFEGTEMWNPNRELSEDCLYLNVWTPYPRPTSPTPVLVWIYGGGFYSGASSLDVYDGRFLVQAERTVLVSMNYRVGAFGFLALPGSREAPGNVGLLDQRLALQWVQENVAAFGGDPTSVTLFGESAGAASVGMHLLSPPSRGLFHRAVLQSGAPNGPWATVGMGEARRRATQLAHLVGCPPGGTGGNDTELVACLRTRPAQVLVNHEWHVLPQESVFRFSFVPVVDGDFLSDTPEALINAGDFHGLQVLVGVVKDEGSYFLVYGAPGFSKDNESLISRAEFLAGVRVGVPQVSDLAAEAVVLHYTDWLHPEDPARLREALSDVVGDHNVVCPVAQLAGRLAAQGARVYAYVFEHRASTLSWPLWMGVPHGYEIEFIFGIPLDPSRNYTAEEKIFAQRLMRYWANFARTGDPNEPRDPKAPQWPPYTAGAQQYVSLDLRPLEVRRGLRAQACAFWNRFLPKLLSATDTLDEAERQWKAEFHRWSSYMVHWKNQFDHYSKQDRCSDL
Settings: not given
As to `O=c1ccoc2ccc(OCCCCN3CCCCC3)cc12`, half-maximal inhibition (IC50) was put at 5580 nM.

For the next data set, the target named is Cholinesterase (Homo sapiens, UniProt P06276). Briefly: Inhibition of human BuChE.
Cholinesterase, sequence (P06276 whole entry): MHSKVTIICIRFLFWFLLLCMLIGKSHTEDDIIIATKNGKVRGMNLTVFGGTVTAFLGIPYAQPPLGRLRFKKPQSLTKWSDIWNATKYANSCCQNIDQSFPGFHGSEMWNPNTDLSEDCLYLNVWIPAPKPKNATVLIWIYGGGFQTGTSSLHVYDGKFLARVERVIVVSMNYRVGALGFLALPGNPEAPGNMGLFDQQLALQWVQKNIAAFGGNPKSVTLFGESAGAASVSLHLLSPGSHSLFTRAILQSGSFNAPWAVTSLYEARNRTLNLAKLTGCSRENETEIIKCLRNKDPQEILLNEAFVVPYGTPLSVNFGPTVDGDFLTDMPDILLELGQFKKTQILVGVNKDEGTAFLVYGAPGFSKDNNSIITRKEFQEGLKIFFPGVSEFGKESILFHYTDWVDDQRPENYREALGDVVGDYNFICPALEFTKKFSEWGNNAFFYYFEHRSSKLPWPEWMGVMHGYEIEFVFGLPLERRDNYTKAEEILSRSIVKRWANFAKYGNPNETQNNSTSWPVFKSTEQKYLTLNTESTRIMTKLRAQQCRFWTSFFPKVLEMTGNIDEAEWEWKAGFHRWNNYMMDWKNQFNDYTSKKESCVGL
Settings: not given
With `O=c1ccoc2ccc(OCCCCN3CCCCC3)cc12`, half-maximal inhibition (IC50) was put at 87500 nM.

As for `O=c1ccoc2ccc(OCCCCCN3CCOCC3)cc12`, the IC50 was over 100000 nM.

For the next data set, the target named is T2, Amine oxidase [flavin-containing] B (Homo sapiens, UniProt P27338).
T2 sequence (P27338 whole entry): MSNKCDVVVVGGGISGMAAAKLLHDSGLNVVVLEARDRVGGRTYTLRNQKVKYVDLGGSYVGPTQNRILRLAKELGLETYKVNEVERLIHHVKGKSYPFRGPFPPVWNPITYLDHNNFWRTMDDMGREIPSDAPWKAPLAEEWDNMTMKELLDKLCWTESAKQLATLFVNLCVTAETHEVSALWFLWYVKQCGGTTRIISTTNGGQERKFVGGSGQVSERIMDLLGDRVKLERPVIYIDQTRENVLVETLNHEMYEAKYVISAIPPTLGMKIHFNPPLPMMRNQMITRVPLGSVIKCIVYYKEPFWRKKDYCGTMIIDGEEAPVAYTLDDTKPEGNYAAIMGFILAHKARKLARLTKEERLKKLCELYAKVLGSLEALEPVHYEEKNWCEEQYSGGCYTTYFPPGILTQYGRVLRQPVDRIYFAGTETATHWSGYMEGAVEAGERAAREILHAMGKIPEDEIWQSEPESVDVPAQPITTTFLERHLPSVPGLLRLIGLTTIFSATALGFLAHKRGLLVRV
Briefly: Inhibition of human MAO-B.
Settings: not given
In the case of `O=c1ccoc2ccc(OCCCCCN3CCCC3)cc12`, the IC50 result was “Not Active”.

Regarding `O=c1ccoc2ccc(OCCCN3CCCCC3)cc12`, the IC50 result is recorded as “Not Active”.

The data set is the same for the next values; noted with them: read-out: IC50.
Consider `O=c1ccoc2ccc(OCCCCN3CCCCC3)cc12`, for which the IC50 is 7200 nM.

Consider `O=c1ccoc2ccc(OCCCN3CCOCC3)cc12`, for which the IC50 was 1180 nM.

Another data set deals with T3, MAO-B (amine oxidase [flavin-containing] B) (Homo sapiens, UniProt P27338).
T3 sequence (P27338 whole entry): T2 sequence (P27338 whole entry)
The data set is described as follows: Inhibition of human MAO-B assessed as residual activity at 10 uM. The conditions noted are these: read-out: Activity.
In the case of `O=c1ccoc2ccc(OCCCN3CCCCCC3)cc12`, the activity at 10 µM was 54%.

Consider `O=c1ccoc2ccc(OCCCCCN3CCOCC3)cc12`, for which the activity at 10 µM turned out to be 58%.
